The text below walks through data of patent US6028222A (priority 1996, dated 2000).

Several values for one entry are separate records, joined by “and”; a condition that tells them apart may be missing. Equal entries are not always repeated. Where two headings read alike, the source gives them in different places.

The nature of series [1]: Stabilization of concentrated paracetamol solution by free radical scavengers. Format: physicochemical. To be noted: for Appearance upon exposure to light, color intensity: 48 hours actinic light; for Appearance at 70° C., color intensity: 48 hours, dark. The protocol:
The solutions thus prepared are divided in 10 ml capacity vials, stoppered with a Bromobutyl stopper and capped with an aluminium cap. After autoclaving at 121° C. for 20 minutes, the vials were stored for 48 hours, either in the presence of actinic light at 5500° K. at room temperature or at 70° C. in the dark. The preparation was examined for any change in color.

Series [2] is described as follows: Stabilization of dilute paracetamol solution by free radical scavengers (formula A). Format: physicochemical. Conditions: 48 hours. Here is the method:
(§1) The solutions thus prepared were divided in 10 ml, 100 ml or 80 ml capacity vials, stoppered with a Bromobutyl stopper and capped with an aluminium cap. The preparation was examined for any pink color development.
After autoclaving at 121° C. for 20 minutes, the vials were stored for 48 hours, either in the presence of actinic light at 5500° K. at room temperature or at 70° C. in the dark (formula A).

Series [3] is classed as physicochemical. Conditions: 48 hours.
Series [4] in a line: Stabilization of dilute paracetamol + codein phosphate solution by free radical scavengers. Format: physicochemical. To be noted: 48 hours. The protocol: The solutions thus prepared were divided in 10 ml capacity vials, stoppered with a Bromobutyl stopper and capped with an aluminium cap. […] The preparation was examined for any change in color.
Series [5] can be described thus: Stabilization of dilute paracetamol solution by free radical scavengers (formulation B and C). Format: physicochemical. Here is the method:
as §1

Series [6] can be described thus: HPLC assay of paracetamol and codein before and after autoclaving. Conditions: for assay, after sterilization: 121° C. 20 minutes.
Series [7] can be described thus: Paracetamol instability in solution and breakdown products. Format: physicochemical. Conditions: aqueous or partially aqueous solutions.
Series [8] relates to extensor digitorum longus muscle. As to the kind of experiment: Muscular tolerance (creatine kinase release from isolated muscle). On the set-up: species or system Sprague-Dawley rats. Conditions: for creatine kinase activity: 15 μl injected. The protocol: The pH of this solution was not adjusted. Apparent pH is equal to 7,6.
Sprague-Dawley rats, weighing between 260 g and 450 g were anesthesized with an i.p. injection of ethyl carbamate (2 ml/kg of a 50% aqueous solution). The extensor digitorum longus muscle was dissected from the right or left hind leg, and placed in buffer medium having the following composition:
The muscle is transiently fixed to a board and maintained in position by tendons. The test product was injected in an amount of 15 μl by means of a 25 μl-capacity Hamilton seringe no 702. The muscle is then placed over a grit and immersed in the buffer solution kept at 37° C. with carbogen bubbling throughout the incubation period. At 30 minutes intervals, the muscles were introduced in a tube containing fresh buffer at 37° C. The procedure was repeated 4 times.
Creatine kinase was measured using a Hitachi 704 model analyzer in conjunction with a reagent kit sold under tradename high performance Enzyline CK NAC 10 (Biomerieux).

The mark [9] stands for this setting: 0.2 mg/ml, 124° C. 7 minutes, 48 hours room temperature dark.
[10] abbreviates: C.R.L. 0.2 mg/ml, 124° C. 7 minutes, 48 hours room temperature dark.
The mark [11] stands for this setting: 50 mg/ml, 124° C. 7 minutes, 48 hours room temperature dark.
The mark [12] stands for this setting: containing 0.5 mg/ml of cystein hydrochloride.
[13] abbreviates: no free radical scavenger added.

Take `O[C@H](CS)[C@H](O)CS` (racemic) [Dithiothreitol]: in series [1] (1 mg/ml), the “Appearance upon exposure to light, color intensity” value (from here on “Appearance upon exposure to light”) was “colorless” and the “Appearance at 70° C., color intensity” value is recorded as “colorless”. Besides, in series [2] (1 mg/ml), the “color at 70° C.” value was “colorless” and the “color upon exposure to light” value is “colorless”. For the same molecule, in series [3] (1 mg/ml), the “color at 70° C.” value is listed as “violet pink” and the “color upon exposure to light” value is “violet pink”. Besides, in series [4] (0.5 mg/ml), the “color at 70° C.” value was “colorless” and the “color upon exposure to light” value is given as “colorless”.

Regarding `Cl.N[C@@H](CS)C(=O)O.O` [Cystein hydrochloride monohydrate], the “Solution appearance, color” value in series [5] (setting [9]) was “colorless”; in series [5] (0.5 mg/ml, 124° C. 7 minutes, 48 hours room temperature dark) it was “colorless”. For the same molecule, the “Dosage of paracetamol (in % of theoretical volume)” value is recorded as 99.2% in series [5] (setting [10]) and 99.6% in series [5] (C.R.L. 0.5 mg/ml, 124° C. 7 minutes, 48 hours room temperature dark). In series [5] (dilute paracetamol solution, 2880 min, hydrochloride monohydrate), the “Dosage of C.R.L. (in % of theoretical volume)” value was 80% and 95%.

`Cl.N[C@@H](CS)C(=O)O` [Cystein hydrochloride]: in series [1] (1 mg/ml), the “Appearance upon exposure to light” value was “cloudy”. Besides, in series [1] (1 mg/ml), the “Appearance at 70° C., color intensity” value is listed as “cloudy”. Besides, the “color at 70° C.” value in series [2] (0.05 mg/ml), in series [2] (0.1 mg/ml), in series [2] (0.25 mg/ml), in series [2] (0.5 mg/ml), in series [2] (0.75 mg/ml) and in series [2] (1 mg/ml) was “colorless” each time. Moreover, the “color at 70° C.” value in series [2] (2 mg/ml) is “colorless”; in series [2] (5 mg/ml), “colorless”; in series [4] (0.05 mg/ml), “pink”; in series [4] (1.0 mg/ml), “colorless”; in series [4] (2.0 mg/ml), “colorless”; in series [4] (5.0 mg/ml), “colorless”. Besides, the “color upon exposure to light” value in series [2] (0.05 mg/ml), in series [2] (0.1 mg/ml), in series [2] (0.25 mg/ml), in series [2] (0.5 mg/ml), in series [2] (0.75 mg/ml) and in series [2] (1 mg/ml) was “colorless” each time. The “color upon exposure to light” value in series [2] (2 mg/ml), in series [2] (5 mg/ml), in series [4] (1.0 mg/ml), in series [4] (2.0 mg/ml) and in series [4] (5.0 mg/ml) was “colorless” throughout.

Consider `OC[C@@H](O)[C@@H](O)[C@H](O)[C@H](O)CO` [Mannitol], for which, in series [1] (50 mg/ml), the “Appearance upon exposure to light” value is “colorless”. For the same molecule, the “Appearance at 70° C., color intensity” value in series [1] (50 mg/ml) was “colorless”. The “Solution appearance, color” value in series [5] (20 mg/ml, 124° C. 7 minutes, 48 hours room temperature dark) is “colorless”; in series [5] (40 mg/ml, 124° C. 7 minutes, 48 hours room temperature dark), “colorless”; in series [5] (setting [11]), “colorless”.

For `CC(=O)N[C@@H](CS)C(=O)O` [N-acetylcystein], in series [5] (setting [9]), the “Dosage of C.R.L. (in % of theoretical volume)” value is 88% and the “Solution appearance, color” value is “colorless”. The “Dosage of paracetamol (in % of theoretical volume)” value in series [5] (setting [10]) is 99.2%. For the same molecule, in series [4] (2.0 mg/ml), the “color at 70° C.” value was “grey” and the “color upon exposure to light” value is listed as “grey”.

In the case of `N[C@@H](CCC(=O)N[C@@H](CS)C(=O)NCC(=O)O)C(=O)O` [Reduced glutathion], the “Appearance upon exposure to light” value in series [1] (1 mg/ml) and in series [1] (8 mg/ml) was “colorless” each time. For the same molecule, the “Appearance at 70° C., color intensity” value in series [1] (1 mg/ml) and in series [1] (8 mg/ml) was “colorless” each time. Also, the “color at 70° C.” value in series [2] (1 mg/ml) and in series [4] (2.0 mg/ml) was “colorless” each time. The “color upon exposure to light” value in series [2] (1 mg/ml) and in series [4] (2.0 mg/ml) was “colorless” each time.

Turning to `O=C1O[C@H]([C@@H](O)CO)C([O-])=C1O.[Na+]` [Sodium ascorbate], in series [1] (1 mg/ml), the “Appearance upon exposure to light” value is recorded as “yellow (+)”. Further, the “Appearance at 70° C., color intensity” value in series [1] (1 mg/ml) is on record as “yellow (+)”. Also, the “color at 70° C.” value in series [2] (0.2 mg/ml) is given as “pink”; in series [2] (0.4 mg/ml), “yellow”; in series [2] (0.6 mg/ml), “yellow”; in series [2] (1 mg/ml), “yellow”; in series [3] (1 mg/ml) it was “yellow”. Moreover, the “color upon exposure to light” value is given as “pink” in series [2] (0.2 mg/ml); “colorless” in series [2] (0.4 mg/ml); “pink” in series [2] (0.6 mg/ml); “colorless” in series [2] (1 mg/ml); “yellow” in series [3] (1 mg/ml).

As to `O=S([O-])OS(=O)[O-].[Na+].[Na+]` [Sodium disulfite], in series [1] (0.295 mg/ml), the “Appearance upon exposure to light” value is recorded as “colorless” and the “Appearance at 70° C., color intensity” value is listed as “colorless”. Also, in series [3] (0.295 mg/ml), the “color at 70° C.” value is “yellow” and the “color upon exposure to light” value is “yellow”. For the same molecule, in series [4] (0.295 mg/ml), the “color at 70° C.” value is “colorless” and the “color upon exposure to light” value is reported as “colorless”.

`NC(N)=S` [Thiourea]: in series [2] (0.5 mg/ml), the “color at 70° C.” value is “colorless” and the “color upon exposure to light” value is listed as “colorless”.

`COc1ccc2c3c1O[C@H]1[C@@H](O)C=C[C@H]4[C@@H](C2)N(C)CC[C@@]341` [codein]: in series [6] (setting [12]), the “assay, non sterilized solution” value turned out to be 0.00042 g/mL and the “assay, after sterilization” value stood at 0.00042 g/mL. Moreover, in series [6] (setting [13]), the “assay, non sterilized solution” value worked out at 0.00043 g/mL and the “assay, after sterilization” value was 0.00042 g/mL.

For `Nc1ccc(O)cc1` [p-aminophenol], the p-aminophenol during storage entry in series [7] was “not detected”.

Regarding `OCC(O)CS` (stereo not drawn) [α-monothioglycerol], in series [1] (1 mg/ml), the “Appearance upon exposure to light” value was “colorless” and the “Appearance at 70° C., color intensity” value is listed as “colorless”. Besides, in series [4] (0.5 mg/ml), the “color at 70° C.” value is listed as “grey” and the “color upon exposure to light” value was “grey”.

For Glucose, the “Solution appearance, color” value in series [5] (setting [11]) is on record as “colorless”.

Take Triton-X: the creatine kinase activity in series [8] (30 min) came to 1802 ± 2114 IU/l; in series [8] (60 min), 1716 ± 978 IU/l; in series [8] (90 min), 155 ± 89 IU/l; in series [8] (120 min), 289 ± 251 IU/l. Moreover, the “creatine kinase activity, Total” value in series [8] (Total of 30-120 min) came to 14962 IU/l.
